According to patent US6228843A (priority 2000, dated 2001):

Tests used:
PKC-α [1] = target: T1, PKC-α (Bos taurus, UniProt P04409); experiment: PKC isozyme expression by Western blot: PKC-α degradation; format: cell-based, bovine
T1 construct: proteolytic degradation of PKC-α in smooth muscle cells; endogenous in cells; host or cells: adult bovine pulmonary artery smooth muscle cells (PA SMC)
Procedure: (§1) Hypoxic growth was induced by priming with the PKC activator, 10 nM PMA. Proliferative response was measured by ^3 H-thymidine incorporation and cell counts. Isozyme expression was measured by Western blot.

PKC βI = target: T2, PKC βI (Bos taurus, UniProt P05126); experiment: PKC isozyme expression by Western blot: βI; format: cell-based, bovine; conditions: adult PA SMC
T2 construct: isozyme expressed in these adult cells (βI); endogenous in cells; host or cells: adult bovine pulmonary artery smooth muscle cells (PA SMC)
Procedure: […]. Hypoxic growth was induced by priming with the PKC activator, 10 nM PMA. Proliferative response was measured by ^3 H-thymidine incorporation and cell counts. Isozyme expression was measured by Western blot. […]. […] […].

PKC-α [2] = target: T3, PKC-α (Mus musculus, UniProt P20444); experiment: PKC-α protein levels in whole lung homogenates of treated mice; format: in vivo; conditions: chronic treatment of mice
T3 construct: PKC-α protein levels in whole lung homogenates; from tissue; host or cells: whole lung homogenates of treated mice

[3] = system: adult bovine pulmonary artery smooth muscle cells; format: cell-based
Procedure: as §1

PKC-α and β = experiment: PKC activity in PA SMC preparation; format: cell-based, bovine

T2 sequence (P05126 whole entry): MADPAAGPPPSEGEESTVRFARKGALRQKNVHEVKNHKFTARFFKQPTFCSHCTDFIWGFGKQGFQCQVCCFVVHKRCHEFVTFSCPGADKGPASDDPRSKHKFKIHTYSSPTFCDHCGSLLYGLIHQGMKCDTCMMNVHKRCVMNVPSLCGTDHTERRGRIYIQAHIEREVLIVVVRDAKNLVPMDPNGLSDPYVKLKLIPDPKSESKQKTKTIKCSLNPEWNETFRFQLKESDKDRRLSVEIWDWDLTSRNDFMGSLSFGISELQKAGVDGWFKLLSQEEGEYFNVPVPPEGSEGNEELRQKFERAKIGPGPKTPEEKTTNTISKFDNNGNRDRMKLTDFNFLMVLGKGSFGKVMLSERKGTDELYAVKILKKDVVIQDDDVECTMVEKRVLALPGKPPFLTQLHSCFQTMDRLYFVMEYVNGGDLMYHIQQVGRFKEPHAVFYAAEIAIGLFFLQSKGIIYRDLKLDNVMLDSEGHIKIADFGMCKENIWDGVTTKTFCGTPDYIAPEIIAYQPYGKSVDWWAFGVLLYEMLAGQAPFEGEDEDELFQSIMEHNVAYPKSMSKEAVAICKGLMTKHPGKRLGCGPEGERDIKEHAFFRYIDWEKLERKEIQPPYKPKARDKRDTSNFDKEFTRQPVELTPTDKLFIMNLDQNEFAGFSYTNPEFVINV

Compound	threshold concentration to induce PKC-α degradation (PKC-α [1]) [nM]	time at which PKC-α degradation is complete (PKC-α [1]; 100 nM) [h]	time at which PKC-α degradation is first detectable (PKC-α [1]; 100 nM) [h]	dose dependence of PKC-α degradation and hypoxic growth (FIG. 6) (PKC-α [1]; bovine PA SMC)	time dependence of PKC-α degradation (FIG. 5) (PKC-α [1]; bovine PA SMC)	degradation of Ca2+-dependent isozyme βI (PKC βI)	PKC-α protein levels in whole lung homogenates (FIG. 8) (PKC-α [2])	hypoxia-induced PA SMC proliferation (FIG. 4) [3]	activity of PKC-α and β (FIG. 4) (PKC-α and β)
CCCC=CC=CC(=O)OC1C(=CC(=O)OC)CC2CC(C(C)O)OC(=O)CC(O)CC3CC(OC(C)=O)C(C)(C)C(O)(CC4CC(=CC(=O)OC)CC(C=CC(C)(C)C1(O)O2)O4)O3 (stereo not drawn) [bryostatin-1]	10	≤ 24	≤ 1	dose-dependent effect	time dependent	No degradation	decreases PKC-α protein levels	–	–
Cn1c2ccccc2c2c3c(c4c5ccccc5n(CCC#N)c4c21)CNC3=O [Go6976]	–	–	–	–	–	–	–	inhibits hypoxia-induced PA SMC proliferation	inhibits activity of PKC-α and β
